Measurements taken from patent US20240238426A1, “PROTEIN ACYLATION MODULATION BY HETEROBIFUNCTIONAL MOLECULES” (THE SCRIPPS RESEARCH INSTITUTE, priority 2021, published 2024).

Experiments:
H3.3-FKBP12^F36V = biological target: T1, H3.3-FKBP12^F36V (Homo sapiens, UniProt P62942+Q09472, F37V); assay: Immunoblot analysis of H3.3-FKBP12^F36V acetylation in HeLa cells; assay type: cell-based; details: for acetylation of H3.3: HeLa cells, FIG. 8
T1 construct: expressed in transfected cells
Protocol: (§1) Lentivirus Production and Transduction: Lentiviral production was performed using HEK293T cells, which were co-transfected with pMD2.G (Addgene, #12259), psPAX2 (Addgene, #12260), and AceTAG lentiviral plasmids using PEI (Polysciences Inc). Viral particles were collected 72 h after transfection and filtered through a […] membrane. A range of dilutions of the lentivirus in DMEM complete and 10 μg/mL polybrene were added to HeLa, H1299, or HeLa RelA KO cell lines. Transduced cells were selected with 1 μg/mL or 2 μg/mL puromycin.
(§2) Immunoblotting: Cells were harvested in cold DPBS by scraping and washed with cold DPBS twice. Cell pellets were resuspended in DPBS supplemented with 5 mM sodium butyrate, 20 mM Nicotinamide, and 1X Halt Protease Inhibitor Cocktail and lysed by sonication (15 ms on, 40 ms off, 15% amplitude, 1s total on x 3). Protein concentration was determined using DC Protein Assay (Bio-Rad) and absorbance read using a CLARIOstar plate reader following manufacturer's instructions. Samples with equal protein content were boiled in 4X SDS gel loading buffer for 10 min. Proteins were separated by 10%, 12.5%, or 15% SDS-polyacrylamide gel electrophoresis and transferred to PVDF membranes using Trans-Blot Turbo RTA Mini […] LF PVDF Transfer Kit (Bio-Rad). Membranes were incubated for 1 h at room temperature with blocking buffer, followed by incubating overnight at 4° C. with primary antibodies. After washing in TBST, the secondary antibodies were incubated with the membranes at room temperature for 1 h. The membranes were washed with TBST for three times and visualized on a Bio-Rad ChemiDoc MP Imaging System with Clarity Max Western ECL substrate (Bio-Rad) or SuperSignal West Femto Chemiluminescent substrate proprietary luminol and peroxide solution kit (Thermo Scientific Pierce).

[1] = tested on: p21 (CDKNIA), PUMA, MDM2, and GLS2; assay: Immunoblot of p53 target gene expression in FKBP12^F36V-p53 H1299 cells; assay type: cell-based, Human; details: 8 hr; for effect of co-treatment on AceTAG-1 induced p21 expression: 3 μM AceTAG-1 with 10 μM A485 or 50 μM FKBP12^F36V-binding ligand, FIG. 7E
Protocol: as §2

[2] = tested on: T2, FKBP12^F36V-RelA (Homo sapiens, F37V); assay: Immunoblot analysis of FKBP12^F36V-RelA acetylation in RelA-/- HeLa cells; assay type: cell-based; details: 625 nM AceTAG-1 with 50 μM FKBP ligand or 1 μM A485, 2 hr, FIG. 6B
T2 construct: expressed in transfected cells
T2 sequence (P62942 2-108 F37V limits assumed): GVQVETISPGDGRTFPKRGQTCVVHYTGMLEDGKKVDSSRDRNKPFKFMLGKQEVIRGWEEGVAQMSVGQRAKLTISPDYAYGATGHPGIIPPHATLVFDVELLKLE
T2 sequence (Q09472 2-2414 limits assumed, stated change not applied, further chain): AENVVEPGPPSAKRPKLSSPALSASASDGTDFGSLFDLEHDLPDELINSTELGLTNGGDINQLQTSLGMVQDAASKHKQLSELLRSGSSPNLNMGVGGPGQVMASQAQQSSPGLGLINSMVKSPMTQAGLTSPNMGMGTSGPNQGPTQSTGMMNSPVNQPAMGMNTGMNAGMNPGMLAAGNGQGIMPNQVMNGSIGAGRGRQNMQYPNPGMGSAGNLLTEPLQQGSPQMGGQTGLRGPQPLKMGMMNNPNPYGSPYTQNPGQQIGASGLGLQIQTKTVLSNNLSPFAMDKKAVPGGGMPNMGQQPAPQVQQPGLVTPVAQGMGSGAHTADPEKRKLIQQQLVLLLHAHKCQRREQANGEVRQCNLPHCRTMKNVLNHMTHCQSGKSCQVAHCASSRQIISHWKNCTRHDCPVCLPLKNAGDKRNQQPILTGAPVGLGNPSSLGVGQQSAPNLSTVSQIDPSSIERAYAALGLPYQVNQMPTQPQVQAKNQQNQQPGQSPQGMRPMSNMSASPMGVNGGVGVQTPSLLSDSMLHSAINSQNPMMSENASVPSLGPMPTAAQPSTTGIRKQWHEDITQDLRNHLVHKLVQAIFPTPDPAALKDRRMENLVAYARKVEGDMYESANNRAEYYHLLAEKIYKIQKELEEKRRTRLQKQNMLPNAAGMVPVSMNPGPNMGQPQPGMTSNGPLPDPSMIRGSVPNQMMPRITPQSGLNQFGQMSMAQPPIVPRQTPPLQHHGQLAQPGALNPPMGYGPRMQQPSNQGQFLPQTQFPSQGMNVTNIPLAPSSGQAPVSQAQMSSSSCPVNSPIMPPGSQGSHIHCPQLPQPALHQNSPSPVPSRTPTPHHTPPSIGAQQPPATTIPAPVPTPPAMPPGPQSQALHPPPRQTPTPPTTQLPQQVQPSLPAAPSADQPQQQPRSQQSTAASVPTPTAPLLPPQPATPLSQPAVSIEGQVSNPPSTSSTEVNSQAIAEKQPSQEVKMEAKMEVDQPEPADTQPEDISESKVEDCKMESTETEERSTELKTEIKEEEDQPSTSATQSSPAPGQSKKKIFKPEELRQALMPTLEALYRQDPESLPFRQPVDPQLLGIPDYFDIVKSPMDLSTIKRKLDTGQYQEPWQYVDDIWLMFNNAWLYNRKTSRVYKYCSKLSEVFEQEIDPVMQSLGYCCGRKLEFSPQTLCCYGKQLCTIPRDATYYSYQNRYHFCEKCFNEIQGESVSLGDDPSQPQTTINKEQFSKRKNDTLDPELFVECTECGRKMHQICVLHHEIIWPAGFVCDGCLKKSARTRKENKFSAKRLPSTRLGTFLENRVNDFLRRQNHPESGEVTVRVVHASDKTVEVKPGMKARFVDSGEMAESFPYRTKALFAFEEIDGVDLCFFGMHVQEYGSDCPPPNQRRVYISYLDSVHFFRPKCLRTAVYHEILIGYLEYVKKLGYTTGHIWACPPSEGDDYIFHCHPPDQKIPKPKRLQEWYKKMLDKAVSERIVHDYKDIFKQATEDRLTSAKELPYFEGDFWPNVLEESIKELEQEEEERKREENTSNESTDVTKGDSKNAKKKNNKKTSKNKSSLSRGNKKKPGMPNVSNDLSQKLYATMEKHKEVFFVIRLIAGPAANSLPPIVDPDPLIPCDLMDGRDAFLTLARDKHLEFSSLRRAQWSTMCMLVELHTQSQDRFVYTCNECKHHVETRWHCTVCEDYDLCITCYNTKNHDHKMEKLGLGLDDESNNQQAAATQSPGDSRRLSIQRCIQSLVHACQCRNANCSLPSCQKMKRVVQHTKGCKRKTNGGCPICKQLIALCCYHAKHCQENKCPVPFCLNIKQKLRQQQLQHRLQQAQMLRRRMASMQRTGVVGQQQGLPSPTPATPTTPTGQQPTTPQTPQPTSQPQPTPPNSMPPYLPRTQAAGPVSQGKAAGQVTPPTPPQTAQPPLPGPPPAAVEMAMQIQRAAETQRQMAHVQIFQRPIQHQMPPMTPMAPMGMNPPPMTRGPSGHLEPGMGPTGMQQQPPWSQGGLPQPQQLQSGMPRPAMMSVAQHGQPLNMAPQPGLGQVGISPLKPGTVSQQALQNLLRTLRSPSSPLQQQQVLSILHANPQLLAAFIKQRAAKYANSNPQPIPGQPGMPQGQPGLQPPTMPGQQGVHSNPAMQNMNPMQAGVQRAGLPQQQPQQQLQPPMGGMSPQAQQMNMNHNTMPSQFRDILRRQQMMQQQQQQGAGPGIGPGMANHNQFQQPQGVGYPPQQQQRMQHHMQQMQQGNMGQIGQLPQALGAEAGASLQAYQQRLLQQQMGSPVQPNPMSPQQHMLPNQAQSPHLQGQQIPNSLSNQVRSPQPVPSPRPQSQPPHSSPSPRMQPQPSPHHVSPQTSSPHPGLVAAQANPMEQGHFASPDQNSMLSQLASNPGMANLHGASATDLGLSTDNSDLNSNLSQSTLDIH
Protocol: as §1, §2

[3] = tested on: T3, FKBP12^F36V-p53 (Homo sapiens, F37V); assay: Immunoblot analysis of FKBP12^F36V-p53 acetylation in H1299 cells; assay type: cell-based; details: 625 nM AceTAG-1 with 50 μM FKBP ligand or 1 μM A485, 2 hr, FIG. 6D
T3 construct: expressed in transfected cells
T3 sequence (P62942 2-108 F37V limits assumed): as the sequence (P62942 2-108 F37V limits assumed) above
T3 sequence (Q09472 2-2414 limits assumed, stated change not applied, further chain): as the sequence (Q09472 2-2414 limits assumed, stated change not applied, further chain) above
Protocol: as §1, §2

[4] = biological target: 6xHis-p300-BRD (active motif #31372) (UniProt Q09472); assay: AlphaScreen, GST-FKBP12^F36V and 6xHis-p300-BRD with a titration of the small molecule AceTAG-1; bell-shaped curve
Chain of 6xHis-p300-BRD (active motif #31372) (Q09472 1040-1161 limits assumed): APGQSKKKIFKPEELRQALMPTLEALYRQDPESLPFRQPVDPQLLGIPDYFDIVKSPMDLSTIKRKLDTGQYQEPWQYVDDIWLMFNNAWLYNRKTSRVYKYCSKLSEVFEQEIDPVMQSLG

[5] = tested on: H3.3-FKBP12^F36V HeLa cells; assay: Quantitative acetylproteomics of H3.3-FKBP12^F36V HeLa cells; assay type: cell-based, Human; details: 2 μM SAHA, FIG. 5E
Protocol: Sample preparation: Frozen cell pellets were thawed on ice and lysed in a buffer containing 50 mM Tris-HCl (pH 7.5), 150 mM NaCl, 1 mM EDTA, 1% NP-40, 0.1% sodium deoxycholate, 5 mM sodium butyrate, 10 mM nicotinamide and 1X Pierce™ protease inhibitor cocktail. Cells were sonicated to ensure complete lysis, mixed with 5 M NaCl at a ratio of 1:10 with sample volume and incubated on ice for 15 min to release chromatin-bound proteins. Cell lysates were then sonicated again to shear genomic DNA. Cellular debris was cleared by centrifugation at 16,000 g for 20 min at 4° C., protein concentration was determined using a Pierce™ BCA assay and ˜10 mg of protein was aliquoted for acetyl-proteomic analysis. Proteins were denatured with 8 M urea in 50 mM HEPES, reduced with 5 mM dithiothreitol for 30 min at 56° C., then alkylated with 5 mM iodoacetamide for 20 min in the dark at RT. Following alkylation, proteins were precipitated using chloroform-methanol as previously described, and protein pellets were dried at 56° C. for 15 min. Proteins pellets were resuspended in 1 M urea in 50 mM HEPES and digested in a two-step process with LysC and trypsin as previously described. Digested peptides were desalted using Phenomenex Strata-X polymeric reverse phase extraction cartridges using the following protocol. Cartridges were conditioned with 1 mL 100% acetonitrile, 1 mL 80% acetonitrile/0.5% AA, and 1 mL 0.1% TFA. Peptides were then loaded on to the cartridge at a reduced flow rate and desalted with 5 mL 0.1% TFA followed by 1 mL 0.5% AA. Desalted peptides were eluted using 1 mL 40% acetonitrile/0.5% AA followed by 1 mL 80% acetonitrile/0.5% AA and lyophilized. Digested peptides were quantified using the Pierce™ Quantitative Colorimetric Peptide Assay and […] was aliquoted from each for total protein analysis while the remaining peptide was lyophilized and retained for acetyl-peptide enrichment.
Acetyl-peptide Enrichment: Acetyl-peptides were enriched using the PTMScan® Acetyl-Lysine Motif [Ac-K] Kit according to manufacturer instructions. […]

T1 sequence (P62942 2-108 F37V limits assumed): as the sequence (P62942 2-108 F37V limits assumed) above
T1 sequence (Q09472 2-2414 limits assumed, stated change not applied): as the sequence (Q09472 2-2414 limits assumed, stated change not applied, further chain) above

CC[C@H](C(=O)N1CCCC[C@H]1C(=O)O[C@H](CCc1ccc(OC)c(OC)c1)c1cccc(OCC(=O)NCCCCCCCC(=O)NCCOc2ccc(CCc3nc4cc(-c5c(C)noc5C)ccc4n3CCN3CCOCC3)cc2)c1)c1cc(OC)c(OC)c(OC)c1 [AceTAG-3, (R)-3-(3,4-dimethoxyphenyl)-1-(3-(2-((8-((2-(4-(2-(5-(3,5-dimethylisoxazol-4-yl)-1-(2-morpholinoethyl)-1H-benzo[d]imidazol-2-yl)ethyl)phenoxy)ethyl)amino)-8-oxooctyl)amino)-2-oxoethoxy)phenyl)propyl (S)-1-((S)-2-(3,4,5-trimethoxyphenyl)butanoyl)piperidine-2-carboxylate]
acetylation of H3.3 (H3.3-FKBP12^F36V): significant acetylation of H3.3

CNC(=O)Nc1ccc2c(c1)CC[C@@]21OC(=O)N(CC(=O)N(Cc2ccc(F)cc2)[C@@H](C)C(F)(F)F)C1=O [A485, reference compound]
effect of co-treatment on AceTAG-1 induced p21 expression [1]: blocked

CCCNC(=O)COc1cccc([C@@H](CCc2ccc(OC)c(OC)c2)OC(=O)[C@@H]2CCCCN2C(=O)[C@@H](CC)c2cc(OC)c(OC)c(OC)c2)c1 [FKBP-c, (R)-3-(3,4-dimethoxyphenyl)-1-(3-(2-oxo-2-(propylamino)ethoxy)phenyl)propyl (S)-1-((S)-2-(3,4,5-trimethoxyphenyl)butanoyl)piperidine-2-carboxylate]
effect of co-treatment on AceTAG-1 induced acetylation of H3.3-FKBP12^F36V (H3.3-FKBP12^F36V; 625 nM AceTAG-1 with 50 μM FKBP ligand or 1 μM A485, 2 hr, FIG. 4D): blocked | effect of co-treatment on AceTAG-1 induced RelA acetylation [2]: blockade of induced acetylation | effect of co-treatment on AceTAG-1 induced p53 acetylation [3]: blockade of induced acetylation | effect of co-treatment on AceTAG-1 induced p21 expression [1]: blocked | p21 expression level with ligand alone ([1]; 3 μM, compared to 3 μM AceTAG-1, FIG. 7E): neither p300 nor FKBP ligand alone increases p21 expression level

GST-FKBP12^F36V (from UniProt P62942 2-108)
AceTAG-1 concentration at maximum ternary complex formation [4]: 1 µM

O=C(CCCCCCC(=O)Nc1ccccc1)NO [SAHA, Vorinostat, reference compound]
number of proteins with increased acetylation relative to DMSO [5]: ~30 proteins

CC[C@H](C(=O)N1CCCC[C@H]1C(=O)OC(CCc1ccc(OC)c(OC)c1)c1cccc(OCC(=O)NCCCCCCCC(=O)NCCOc2ccc(CCc3nc4cc(-c5c(C)noc5C)ccc4n3CCN3CCOCC3)cc2)c1)c1cc(OC)c(OC)c(OC)c1 (some centres unmarked) [AceTAG-4]
acetylation of H3.3 (H3.3-FKBP12^F36V): significant acetylation of H3.3

CC[C@H](C(=O)N1CCCC[C@H]1C(=O)O[C@H](CCc1ccc(OC)c(OC)c1)c1cccc(OCC(=O)NCCOCCOCCOCCC(=O)NCCOc2ccc(CCc3nc4cc(-c5c(C)noc5C)ccc4n3CCN3CCOCC3)cc2)c1)c1cc(OC)c(OC)c(OC)c1 [AceTAG-2, (R)-3-(3,4-dimethoxyphenyl)-1-(3-((18-(4-(2-(5-(3,5-dimethylisoxazol-4-yl)-1-(2-morpholinoethyl)-1H-benzo[d]imidazol-2-yl)ethyl)phenoxy)-2,15-dioxo-6,9,12-trioxa-3,16-diazaoctadecyl)oxy)phenyl)propyl (S)-1-((S)-2-(3,4,5-trimethoxyphenyl)butanoyl)piperidine-2-carboxylate]
acetylation of H3.3 (H3.3-FKBP12^F36V): significant acetylation of H3.3
